Assay results published in patent US20020137929A1, “1 - (3-heterocyclylphenyl) isothiourea, -isourea, -guanidine and -amidine herbicidal agents” (Intellectual Property Department, BASF Aktiengesellschaft, priority 1998, published 2002).

Key:
[1] = system: SAGPY (Arrowhead (Pygmaea)); test: Postemergence weed control under flooded paddy conditions; assay type: in vivo, Sagittaria pygmaea; conditions: postemergence weeds
Outline: (§1)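 Herbicidal effect is judged by eye on a 0–9 scale versus control, 3–4 weeks after dosing. Dosing is into flood water kept 1.5–3 cm over the soil, at about 0.0313–0.500 kg/ha in aqueous/acetone 50/50 v/v, on 3–5 cm weeds and 1.5–2.5-leaf rice seedlings.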

[2] = system: IPOHE (Morningglory, Ivyleaf); test: Preemergence herbicidal evaluation; assay type: in vivo, Ipomoea hederacea; conditions: rated 4-5 weeks after treatment
Outline: (§2)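 Each species is sown separately in potting soil over roughly an inch of soil before any emergence. The soil surface then receives an aqueous acetone spray delivering about 0.0156 to 0.500 kg/ha of compound. After four to five weeks, injury is scored from 0 to 9 relative to a control.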

ZEAMX (Corn, Field) = test: Preemergence herbicidal evaluation; assay type: in vivo, Zea mays; conditions: rated 4-5 weeks after treatment
Outline: as §2

CYPIR (Rice Flatsedge) [3] = test: Preemergence weed control under flooded paddy conditions; assay type: in vivo, Cyperus iria; conditions: rated 3-4 weeks after treatment
Outline: (§3)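 First, seeds or propagules go into the top 0.5 cm of silt loam; next, water is held 1.5 to 3 cm over the soil; then compound (50/50 acetone/water) is pipetted into it at about 0.0313 to 0.500 kg/ha; finally plants are rated visually 0-9 after three to four weeks.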

ORYSAT (Rice, Tebonnet) = test: Postemergence herbicidal evaluation; assay type: in vivo, Oryza sativa, (L.) Tebonnet; conditions: for ORYSAT herbicidal rating: postemergence
Outline: (§4)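 Visual 0–9 rating versus control (stand, vigor, malformation, size, chlorosis, overall appearance), taken four to five weeks post-spray. Two-week-old seedlings received roughly 0.0156–0.500 kg/ha active in acetone/water (50/50) with 0.5% TWEEN 20 via nozzle at 40 psi.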

ECHCG (Barnyardgrass) = test: Postemergence herbicidal evaluation; assay type: in vivo, Echinochloa crus-galli; conditions: for ECHCG herbicidal rating: postemergence
Outline: as §4

SETVI (Foxtail, Green) = test: Postemergence herbicidal evaluation; assay type: in vivo, Setaria viridis; conditions: for SETVI herbicidal rating: postemergence
Outline: as §4

[4] = system: ECHORC (Watergrass (Calif.)); test: Preemergence weed control under flooded paddy conditions; assay type: in vivo, Echinochloa oryzoides; conditions: rated 3-4 weeks after treatment
Outline: as §3

ABUTH (Velvetleaf) = test: Postemergence herbicidal evaluation; assay type: in vivo, Abutilon theophrasti; conditions: for ABUTH herbicidal rating: postemergence
Outline: as §4

CYPIR (Rice Flatsedge) [5] = test: Postemergence weed control under flooded paddy conditions; assay type: in vivo, Cyperus iria; conditions: postemergence weeds
Outline: as §1

[6] = system: TRZAWR (Wheat, Winter, cv Riband); test: Preemergence herbicidal evaluation; assay type: in vivo, Triticum aestivum; conditions: rated 4-5 weeks after treatment
Outline: as §2

GALAP (Galium) = test: Postemergence herbicidal evaluation; assay type: in vivo, Galium aparine; conditions: for GALAP herbicidal rating: postemergence
Outline: as §4

CYPSE (Flatsedge) = test: Postemergence weed control under flooded paddy conditions; assay type: in vivo, Cyperus serotinus; conditions: postemergence weeds
Outline: as §1

[7] = rate 0.2500 kg/ha, 3-4 weeks after treatment
[8] = Rate 0.0313 kg/ha, rated 3 to 4 weeks after treatment
[9] = Rate 0.0625 kg/ha, rated 3 to 4 weeks after treatment
[10] = Rate 0.1250 kg/ha, rated 3 to 4 weeks after treatment
[11] = Rate 0.2500 kg/ha, rated 3 to 4 weeks after treatment

SMILES: CCOC(=O)CN1C(=O)C(CC(=O)O)SC1=Nc1cc(-n2c(=O)cc(C(F)(F)F)n(C)c2=O)c(Cl)cc1Cl (stereo not shown) [Compound 33, 2-{{2,4-Dichloro-5-[3,6-dihydro-3-methyl-2,6-dioxo-4-(trifluoromethyl)-1(2H)-pyrimidinyl]phenyl}-imino}-4-oxo-3,5-thiazolidinediacetic acid, 3-ethyl ester]
- Herbicidal rating SAGPY [1, 7]: 0.0
- Preemergence herbicidal rating IPOHE ([2]; rate 0.0156 kg/ha): 0.0
- Preemergence herbicidal rating IPOHE ([2]; rate 0.0313 kg/ha): 0.0
- Preemergence herbicidal rating IPOHE ([2]; rate 0.0625 kg/ha): 0.0
- Preemergence herbicidal rating IPOHE ([2]; rate 0.1250 kg/ha): 0.0
- Preemergence herbicidal rating IPOHE ([2]; rate 0.2500 kg/ha): 9.0
- Preemergence herbicidal rating ZEAMX (ZEAMX (Corn, Field); rate 0.0156 kg/ha): 0.0
- Preemergence herbicidal rating ZEAMX (ZEAMX (Corn, Field); rate 0.0313 kg/ha): 0.0
- Preemergence herbicidal rating ZEAMX (ZEAMX (Corn, Field); rate 0.0625 kg/ha): 0.0
- Preemergence herbicidal rating ZEAMX (ZEAMX (Corn, Field); rate 0.1250 kg/ha): 0.0
- Preemergence herbicidal rating ZEAMX (ZEAMX (Corn, Field); rate 0.2500 kg/ha): 0.0
- Herbicidal rating CYPIR (CYPIR (Rice Flatsedge) [3]; 0.2500 kg/ha): 0.0
- Postemergence herbicidal rating ORYSAT (ORYSAT (Rice, Tebonnet); Rate 0.0158 kg/ha): 0.5
- Postemergence herbicidal rating ORYSAT (ORYSAT (Rice, Tebonnet); Rate 0.0315 kg/ha): 2.0
- Postemergence herbicidal rating ORYSAT (ORYSAT (Rice, Tebonnet); Rate 0.0630 kg/ha): 2.0
- Postemergence herbicidal rating ECHCG (ECHCG (Barnyardgrass); Rate 0.0158 kg/ha): 2.0
- Postemergence herbicidal rating ECHCG (ECHCG (Barnyardgrass); Rate 0.0315 kg/ha): 9.0
- Postemergence herbicidal rating ECHCG (ECHCG (Barnyardgrass); Rate 0.0630 kg/ha): 9.0
- Postemergence herbicidal rating SETVI (SETVI (Foxtail, Green); Rate 0.0158 kg/ha): 4.0
- Postemergence herbicidal rating SETVI (SETVI (Foxtail, Green); Rate 0.0315 kg/ha): 7.0
- Postemergence herbicidal rating SETVI (SETVI (Foxtail, Green); Rate 0.0630 kg/ha): 8.0
- Herbicidal rating ECHORC ([4]; 0.2500 kg/ha): 0.0
- Postemergence herbicidal rating ABUTH (ABUTH (Velvetleaf); Rate 0.0158 kg/ha): 9.0
- Postemergence herbicidal rating ABUTH (ABUTH (Velvetleaf); Rate 0.0315 kg/ha): 9.0
- Postemergence herbicidal rating ABUTH (ABUTH (Velvetleaf); Rate 0.0630 kg/ha): 9.0
- Herbicidal rating CYPIR (CYPIR (Rice Flatsedge) [5]; [7]): 0.0
- Preemergence herbicidal rating TRZAWR ([6]; rate 0.0156 kg/ha): 0.0
- Preemergence herbicidal rating TRZAWR ([6]; rate 0.0313 kg/ha): 0.0
- Preemergence herbicidal rating TRZAWR ([6]; rate 0.0625 kg/ha): 0.0
- Preemergence herbicidal rating TRZAWR ([6]; rate 0.1250 kg/ha): 0.0
- Preemergence herbicidal rating TRZAWR ([6]; rate 0.2500 kg/ha): 0.0
- Postemergence herbicidal rating GALAP (GALAP (Galium); Rate 0.0158 kg/ha): 3.0
- Postemergence herbicidal rating GALAP (GALAP (Galium); Rate 0.0315 kg/ha): 4.0
- Postemergence herbicidal rating GALAP (GALAP (Galium); Rate 0.0630 kg/ha): 5.0
- Herbicidal rating CYPSE (CYPSE (Flatsedge); [7]): 0.0

SMILES: CCOC(=O)[C@H](Cc1ccccc1)N1C(=O)CSC1=Nc1cc(-n2c(=O)cc(C(F)(F)F)n(C)c2=O)c(F)cc1Cl [Compound 80, Ethyl α-benzyl-2-{{2-chloro-5-[3,6-dihydro-3-methyl-2,6-dioxo-4-(trifluoromethyl)-1(2H)-pyrimidinyl]-4-fluorophenyl}imino}-4-oxo-3-thiazolidineacetate, L-]
- Herbicidal rating SAGPY [1, 8]: 0.0
- Herbicidal rating SAGPY [1, 9]: 0.0
- Herbicidal rating SAGPY [1, 10]: 0.0
- Herbicidal rating SAGPY [1, 11]: 0.0
- Preemergence herbicidal rating IPOHE ([2]; rate 0.0156 kg/ha): 0.0
- Preemergence herbicidal rating IPOHE ([2]; rate 0.0313 kg/ha): 0.0
- Preemergence herbicidal rating IPOHE ([2]; rate 0.0625 kg/ha): 0.0
- Preemergence herbicidal rating IPOHE ([2]; rate 0.1250 kg/ha): 4.0
- Preemergence herbicidal rating IPOHE ([2]; rate 0.2500 kg/ha): 9.0
- Preemergence herbicidal rating ZEAMX (ZEAMX (Corn, Field); rate 0.0156 kg/ha): 0.0
- Preemergence herbicidal rating ZEAMX (ZEAMX (Corn, Field); rate 0.0313 kg/ha): 0.0
- Preemergence herbicidal rating ZEAMX (ZEAMX (Corn, Field); rate 0.0625 kg/ha): 1.0
- Preemergence herbicidal rating ZEAMX (ZEAMX (Corn, Field); rate 0.1250 kg/ha): 3.0
- Preemergence herbicidal rating ZEAMX (ZEAMX (Corn, Field); rate 0.2500 kg/ha): 3.0
- CYPIR herbicidal effect rating (CYPIR (Rice Flatsedge) [3]; 0.0313 kg/ha): 5.0
- CYPIR herbicidal effect rating (CYPIR (Rice Flatsedge) [3]; 0.0625 kg/ha): 7.0
- CYPIR herbicidal effect rating (CYPIR (Rice Flatsedge) [3]; 0.1250 kg/ha): 7.0
- CYPIR herbicidal effect rating (CYPIR (Rice Flatsedge) [3]; 0.2500 kg/ha): 7.0
- ORYSAT herbicidal rating (ORYSAT (Rice, Tebonnet); rate 0.0158 kg/ha): 3.5
- ORYSAT herbicidal rating (ORYSAT (Rice, Tebonnet); rate 0.0315 kg/ha): 3.5
- ORYSAT herbicidal rating (ORYSAT (Rice, Tebonnet); rate 0.0630 kg/ha): 4.0
- ECHCG herbicidal rating (ECHCG (Barnyardgrass); rate 0.0158 kg/ha): 1.0
- ECHCG herbicidal rating (ECHCG (Barnyardgrass); rate 0.0315 kg/ha): 2.0
- ECHCG herbicidal rating (ECHCG (Barnyardgrass); rate 0.0630 kg/ha): 3.0
- SETVI herbicidal rating (SETVI (Foxtail, Green); rate 0.0158 kg/ha): 1.0
- SETVI herbicidal rating (SETVI (Foxtail, Green); rate 0.0315 kg/ha): 2.0
- SETVI herbicidal rating (SETVI (Foxtail, Green); rate 0.0630 kg/ha): 4.0
- ECHORC herbicidal effect rating ([4]; 0.0313 kg/ha): 9.0
- ECHORC herbicidal effect rating ([4]; 0.0625 kg/ha): 9.0
- ECHORC herbicidal effect rating ([4]; 0.1250 kg/ha): 9.0
- ECHORC herbicidal effect rating ([4]; 0.2500 kg/ha): 9.0
- ABUTH herbicidal rating (ABUTH (Velvetleaf); rate 0.0158 kg/ha): 9.0
- ABUTH herbicidal rating (ABUTH (Velvetleaf); rate 0.0315 kg/ha): 9.0
- ABUTH herbicidal rating (ABUTH (Velvetleaf); rate 0.0630 kg/ha): 9.0
- Herbicidal rating CYPIR (CYPIR (Rice Flatsedge) [5]; [8]): 5.0
- Herbicidal rating CYPIR (CYPIR (Rice Flatsedge) [5]; [9]): 7.0
- Herbicidal rating CYPIR (CYPIR (Rice Flatsedge) [5]; [10]): 7.0
- Herbicidal rating CYPIR (CYPIR (Rice Flatsedge) [5]; [11]): 7.0
- Preemergence herbicidal rating TRZAWR ([6]; rate 0.0156 kg/ha): 0.0
- Preemergence herbicidal rating TRZAWR ([6]; rate 0.0313 kg/ha): 0.0
- Preemergence herbicidal rating TRZAWR ([6]; rate 0.0625 kg/ha): 0.0
- Preemergence herbicidal rating TRZAWR ([6]; rate 0.1250 kg/ha): 2.0
- Preemergence herbicidal rating TRZAWR ([6]; rate 0.2500 kg/ha): 1.0
- GALAP herbicidal rating (GALAP (Galium); rate 0.0158 kg/ha): 2.0
- GALAP herbicidal rating (GALAP (Galium); rate 0.0315 kg/ha): 4.0
- GALAP herbicidal rating (GALAP (Galium); rate 0.0630 kg/ha): 5.0
- Herbicidal rating CYPSE (CYPSE (Flatsedge); [8]): 3.0
- Herbicidal rating CYPSE (CYPSE (Flatsedge); [9]): 3.0
- Herbicidal rating CYPSE (CYPSE (Flatsedge); [10]): 3.0
- Herbicidal rating CYPSE (CYPSE (Flatsedge); [11]): 4.0
